The record followed here is patent US9428514B2, “Bromodomain inhibitors” (AbbVie Inc., priority 2013, dated 2016).

The structures appear in SMILES notation.

In this test the test system is breast cancer cell line MX-1. Briefly: MX-1 cell line proliferation assay (3-day, Cell Titer Glo). It is filed as cell-based. The following applies: Homo sapiens, MX1, MX-1 cells, 72 hours, read-out: Cellular proliferation: EC50. How it is done:
The impact of compounds of the Examples on cancer cell proliferation was determined using the breast cancer cell line MX-1 (ATCC) in a 3-day proliferation assay. MX-1 cells were maintained in RPMI supplemented with 10% FBS at 37° C. and an atmosphere of 5% CO2. For compound testing, MX-1 cells were plated in 96-well black bottom plates at a density of 5000 cells/well in 90 μL of culture media and incubated at 37° overnight to allow cell adhesion and spreading. Compound dilution series were prepared in DMSO via a 3-fold serial dilution from 3 mM to […]. The DMSO dilution series were then diluted 1:100 in phosphate buffered saline, and 10 μL of the resulted solution were added to the appropriate wells of the MX-1 cell plate. The final compound concentrations in the wells were 3, 1, 0.3, 0.1, 0.03, 0.01, 0.003, 0.001, 0.0003, 0.0001, and 0.00003 μM.
Luminescence readings from the Cell Titer Glo assay were normalized to the DMSO treated cells and analyzed using the GraphPad Prism software with sigmoidal curve fitting to obtain EC50s. The minimum significant ratio (MSR) was determined to evaluate assay reproducibility (Eastwood et al., (2006) J Biomol Screen, 11: 253-261). The overall MSR was determined to be 2.1 and a moving MSR (last six run MSR overtime) has been <2. The EC50 values are reported in Table 1 for the indicated compounds.
For orientation: ATP-based viability assays read luminescence as a measure of living cells.
Take `CCOc1cc(=O)n(C)cc1-c1cc(NC(=O)Cc2cc(F)ccc2Cl)ccc1Oc1ccc(F)cc1F` [Example 1, 2-(2-chloro-5-fluorophenyl)-N-[4-(2,4-difluorophenoxy)-3-(4-ethoxy-1-methyl-6-oxo-1,6-dihydropyridin-3-yl)phenyl]acetamide]: the EC50 was determined as 0.114 µM.

Consider `CCOc1cc(=O)n(C)cc1-c1cc(NC(=O)COCc2ccccc2)ccc1Oc1ccc(F)cc1F` [Example 35, 2-(benzyloxy)-N-[4-(2,4-difluorophenoxy)-3-(4-ethoxy-1-methyl-6-oxo-1,6-dihydropyridin-3-yl)phenyl]acetamide], for which the EC50 came to 0.375 µM.

Consider `CCOc1cc(=O)n(C)cc1-c1cc(N(Cc2cnccn2)S(=O)(=O)CC)ccc1Oc1ccc(F)cc1F` [Example 95, N-[4-(2,4-difluorophenoxy)-3-(4-ethoxy-1-methyl-6-oxo-1,6-dihydropyridin-3-yl)phenyl]-N-(pyrazin-2-ylmethyl)ethanesulfonamide], for which the EC50 was over 1 µM.

Consider `CCOc1cc(=O)n(C)cc1-c1cc(N(Cc2ccccc2)S(=O)(=O)CC)ccc1Oc1ccc(F)cc1F` [Example 73, N-benzyl-N-[4-(2,4-difluorophenoxy)-3-(4-ethoxy-1-methyl-6-oxo-1,6-dihydropyridin-3-yl)phenyl]ethanesulfonamide], for which the EC50 is over 1 µM.

`CCOc1cc(=O)n(C)cc1-c1cc(N(C[C@H]2COCCO2)S(=O)(=O)CC)ccc1Oc1ccc(F)cc1F` [Example 102, N-[4-(2,4-difluorophenoxy)-3-(4-ethoxy-1-methyl-6-oxo-1,6-dihydropyridin-3-yl)phenyl]-N-[(2S)-1,4-dioxan-2-ylmethyl]ethanesulfonamide]: the EC50 was 0.71 µM.

As for `CCOc1cc(=O)n(C)cc1-c1cc(NC(=O)Cc2cnc(C)s2)ccc1Oc1ccc(F)cc1F` [Example 7, N-[4-(2,4-difluorophenoxy)-3-(4-ethoxy-1-methyl-6-oxo-1,6-dihydropyridin-3-yl)phenyl]-2-(2-methyl-1,3-thiazol-5-yl)acetamide], the EC50 amounted to 0.187 µM.

Regarding `CCOc1cc(=O)n(C)cc1-c1cc(NC(=O)Cc2cccc(Oc3ccccc3)c2)ccc1Oc1ccc(F)cc1F` [Example 28, N-[4-(2,4-difluorophenoxy)-3-(4-ethoxy-1-methyl-6-oxo-1,6-dihydropyridin-3-yl)phenyl]-2-(3-phenoxyphenyl)acetamide], the EC50 is 0.605 µM.

Regarding `CCOc1cc(=O)n(C)cc1-c1cc(N(Cc2cccnc2)S(=O)(=O)Cc2ccccc2)ccc1Oc1ccc(F)cc1F` [Example 92, N-[4-(2,4-difluorophenoxy)-3-(4-ethoxy-1-methyl-6-oxo-1,6-dihydropyridin-3-yl)phenyl]-1-phenyl-N-(pyridin-3-ylmethyl)methanesulfonamide], the EC50 was over 1 µM.

Regarding `CCOc1cc(=O)n(C)cc1-c1cc(NC(=O)Cc2cnn(C)c2)ccc1Oc1ccc(F)cc1F` [Example 4, N-[4-(2,4-difluorophenoxy)-3-(4-ethoxy-1-methyl-6-oxo-1,6-dihydropyridin-3-yl)phenyl]-2-(1-methyl-1H-pyrazol-4-yl)acetamide], the EC50 came out at 0.425 µM.

Regarding `CCOc1cc(=O)n(C)cc1-c1cc(NC(=O)CCOc2ccccc2)ccc1Oc1ccc(F)cc1F` [Example 30, N-[4-(2,4-difluorophenoxy)-3-(4-ethoxy-1-methyl-6-oxo-1,6-dihydropyridin-3-yl)phenyl]-3-phenoxypropanamide], the EC50 was over 3 µM.

Regarding `CCOc1cc(=O)n(C)cc1-c1cc(N(Cc2cn(C)cn2)S(=O)(=O)CC)ccc1Oc1ccc(F)cc1F` [Example 100, N-[4-(2,4-difluorophenoxy)-3-(4-ethoxy-1-methyl-6-oxo-1,6-dihydropyridin-3-yl)phenyl]-N-[(1-methyl-1H-imidazol-4-yl)methyl]ethanesulfonamide], the EC50 was over 1 µM.

For the molecule `CCOc1cc(=O)n(C)cc1-c1cc(NC(=O)Cc2ccc(OCc3ccccc3)cc2)ccc1Oc1ccc(F)cc1F` [Example 45, 2-[4-(benzyloxy)phenyl]-N-[4-(2,4-difluorophenoxy)-3-(4-ethoxy-1-methyl-6-oxo-1,6-dihydropyridin-3-yl)phenyl]acetamide], the EC50 worked out at 0.981 µM.

For the molecule `CCOc1cc(=O)n(C)cc1-c1cc(N(Cc2ccccc2Cl)S(=O)(=O)CC)ccc1Oc1ccc(F)cc1F` [Example 74, N-(2-chlorobenzyl)-N-[4-(2,4-difluorophenoxy)-3-(4-ethoxy-1-methyl-6-oxo-1,6-dihydropyridin-3-yl)phenyl]ethanesulfonamide], the EC50 worked out at 0.464 µM.

In the case of `CCOc1cc(=O)n(C)cc1-c1cc(N(CC2CC2)C(=O)Cc2cc(F)ccc2Cl)ccc1Oc1ccc(F)cc1F` [Example 67, 2-(2-chloro-5-fluorophenyl)-N-(cyclopropylmethyl)-N-[4-(2,4-difluorophenoxy)-3-(4-ethoxy-1-methyl-6-oxo-1,6-dihydropyridin-3-yl)phenyl]acetamide], the EC50 was over 1 µM.

Turning to `CCOc1cc(=O)n(C)cc1-c1cc(N(CCc2ccccc2)S(=O)(=O)Cc2ccccc2)ccc1Oc1ccc(F)cc1F` [Example 79, N-[4-(2,4-difluorophenoxy)-3-(4-ethoxy-1-methyl-6-oxo-1,6-dihydropyridin-3-yl)phenyl]-1-phenyl-N-(2-phenylethyl)methanesulfonamide], the EC50 was over 1 µM.

Take `CCOc1cc(=O)n(C)cc1-c1cc(NC(=O)Nc2cc(C)ccc2C)ccc1Oc1ccc(F)cc1F` [Example 19, 1-[4-(2,4-difluorophenoxy)-3-(4-ethoxy-1-methyl-6-oxo-1,6-dihydropyridin-3-yl)phenyl]-3-(2,5-dimethylphenyl)urea]: the EC50 stood at 0.557 µM.

For the molecule `CCOc1cc(=O)n(C)cc1-c1cc(NCc2ccc(F)cc2)ccc1Oc1ccc(F)cc1F` [Example 64, 5-{2-(2,4-difluorophenoxy)-5-[(4-fluorobenzyl)amino]phenyl}-4-ethoxy-1-methylpyridin-2(1H)-one], the EC50 stood at 0.508 µM.

`CCOc1cc(=O)n(C)cc1-c1cc(N(Cc2cnn(C)c2)S(=O)(=O)Cc2ccccc2)ccc1Oc1ccc(F)cc1F` [Example 98, N-[4-(2,4-difluorophenoxy)-3-(4-ethoxy-1-methyl-6-oxo-1,6-dihydropyridin-3-yl)phenyl]-N-[(1-methyl-1H-pyrazol-4-yl)methyl]-1-phenylmethanesulfonamide]: the EC50 was over 1 µM.

Take `CCOc1cc(=O)n(C)cc1-c1cc(NC(=O)Cc2ccc(-c3ccccc3)cc2)ccc1Oc1ccc(F)cc1F` [Example 42, 2-(biphenyl-4-yl)-N-[4-(2,4-difluorophenoxy)-3-(4-ethoxy-1-methyl-6-oxo-1,6-dihydropyridin-3-yl)phenyl]acetamide]: the EC50 was 0.678 µM.

Regarding `CCOc1cc(=O)n(C)cc1-c1cc(NCc2cccc(C)n2)ccc1Oc1ccc(F)cc1F` [Example 11, 5-[2-(2,4-difluorophenoxy)-5-{[(6-methylpyridin-2-yl)methyl]amino}phenyl]-4-ethoxy-1-methylpyridin-2(1H)-one], the EC50 was 0.884 µM.

As to `CCOc1cc(=O)n(C)cc1-c1cc(NC(=O)Cc2csc(C)n2)ccc1Oc1ccc(F)cc1F` [Example 83, N-[4-(2,4-difluorophenoxy)-3-(4-ethoxy-1-methyl-6-oxo-1,6-dihydropyridin-3-yl)phenyl]-2-(2-methyl-1,3-thiazol-4-yl)acetamide], the EC50 stood at 0.304 µM.

In the case of `CCOc1cc(=O)n(C)cc1-c1cc(NCCCn2cccn2)ccc1Oc1ccc(F)cc1F` [Example 9, 5-[2-(2,4-difluorophenoxy)-5-{[3-(1H-pyrazol-1-yl)propyl]amino}phenyl]-4-ethoxy-1-methylpyridin-2(1H)-one], the EC50 came out at 0.746 µM.

Regarding `CCOc1cc(=O)n(C)cc1-c1cc(N(Cc2cnccn2)S(=O)(=O)Cc2ccccc2)ccc1Oc1ccc(F)cc1F` [Example 96, N-[4-(2,4-difluorophenoxy)-3-(4-ethoxy-1-methyl-6-oxo-1,6-dihydropyridin-3-yl)phenyl]-1-phenyl-N-(pyrazin-2-ylmethyl)methanesulfonamide], the EC50 is over 1 µM.

For the molecule `CCOc1cc(=O)n(C)cc1-c1cc(NC(=O)Cc2ccc3c(c2)CCCO3)ccc1Oc1ccc(F)cc1F` [Example 2, N-[4-(2,4-difluorophenoxy)-3-(4-ethoxy-1-methyl-6-oxo-1,6-dihydropyridin-3-yl)phenyl]-2-(3,4-dihydro-2H-chromen-6-yl)acetamide], the EC50 turned out to be 0.279 µM.

Turning to `CCOc1cc(=O)n(C)cc1-c1cc(NCc2cnco2)ccc1Oc1ccc(F)cc1F` [Example 23, 5-{2-(2,4-difluorophenoxy)-5-[(1,3-oxazol-5-ylmethyl)amino]phenyl}-4-ethoxy-1-methylpyridin-2(1H)-one], the EC50 was over 3 µM.

As to `CCOc1cc(=O)n(C)cc1-c1cc(NC(=O)Cc2ccc3ccccc3c2)ccc1Oc1ccc(F)cc1F` [Example 39, N-[4-(2,4-difluorophenoxy)-3-(4-ethoxy-1-methyl-6-oxo-1,6-dihydropyridin-3-yl)phenyl]-2-(naphthalen-2-yl)acetamide], the EC50 was 0.595 µM.

As for `CCOc1cc(=O)n(C)cc1-c1cc(N(Cc2cn(C)cn2)S(=O)(=O)Cc2ccccc2)ccc1Oc1ccc(F)cc1F` [Example 101, N-[4-(2,4-difluorophenoxy)-3-(4-ethoxy-1-methyl-6-oxo-1,6-dihydropyridin-3-yl)phenyl]-N-[(1-methyl-1H-imidazol-4-yl)methyl]-1-phenylmethanesulfonamide], the EC50 was over 1 µM.
